# Measured values taken from patent publication US6399623B1, “Wood treatment” (Agrevo UK Ltd., priority 1998, dated 2002).
# Columns and labels:
# Gloephyllum trabeum = experiment: In vitro malt agar test, colony diameter; type: cell-based; settings: assessed after 11 days
# Method: A 50% SC of fluquinconazole (fq) was incorporated into malt agar at various rates and the agar placed into Petri dishes. Into the centre of each plate was implanted a 4 mm plug of the mycelium of a wood rotting fungus. […] The experiment was also carried out with a fluquinconazole formulation containing di(2-ethylhexyl)octyl phosphonate (ph) with and without prochloraz (pz).
# sapstain fungi = experiment: In vivo test of activity against sapstain fungi (dipped pine bundles); settings: 50% suspension concentrate diluted to 0.25%, 60 s dip, after 4 weeks; compared with wood dipped only in water
# Text: Bundles consisting of 7 pieces of freshly cut pine (approximate sizes of 20 cm×30 cm) were dipped in a 50% suspension concentrate of fluquinconazole, diluted to 0.25%, for 60 seconds, ensuring each piece of wood was separated from its contacting pieces. The wood was removed from the liquid and allowed to drain for 10 seconds and then placed in an unsealed polythene bag at room temperature. The bag was used in order to maintain a high relative humidity, which promotes growth of sapstain. The wood was removed for examination after 4 weeks and divided into two in order to expose the centre of the bundles. These were assessed for sapstain infection.
# [1] = system: wood rotting fungi (mainly basidiomycetes); experiment: In vivo test of activity against wood destroying fungi (dipped pine pieces); settings: 100 ppm fluquinconazole, formulation containing di(2-ethylhexyl)octyl phosphonate, 5 weeks in sealed bag, compared with standards without pesticide
# Method: Pieces of pine were dipped into a fluquinconazole formulation containing di(2-ethylhexyl)octyl phosphonate at different rates and then removed and put, whilst soaking wet, into a polythene bag which was sealed and left in a greenhouse for 5 weeks. The degree of control of wood rotting fungi (mainly basidiomycetes) was then assessed.
# Coriolus versicolor = experiment: In vitro malt agar test, colony diameter; type: cell-based; settings: assessed after 6 days
# Method: (§1) A 50% SC of fluquinconazole (fq) was incorporated into malt agar at various rates and the agar placed into Petri dishes. Into the centre of each plate was implanted a 4 mm plug of the mycelium of a wood rotting fungus. The plates were kept at 20° C. in a darkened room for 6 days when the control of the fungus by the fluquinconazole was assessed. The experiment was also carried out with a fluquinconazole formulation containing di(2-ethylhexyl)octyl phosphonate (ph) with and without prochloraz (pz).
# Poria placenta = experiment: In vitro malt agar test, colony diameter; type: cell-based; settings: assessed after 6 days
# Method: as §1
# Coniophora puteana = experiment: In vitro malt agar test, colony diameter; type: cell-based; settings: assessed after 6 days
# Method: as §1
compound,measurement,setting,value
"O=c1c2cc(F)ccc2nc(-n2cncn2)n1-c1ccc(Cl)cc1Cl [fluquinconazole, 3-(2,4-dichlorophenyl)-6-fluoro-2-(1H-1,2,4-triazol-1-yl)-4(3H)-quinazolinone]",% Control based on colony diameter,Gloephyllum trabeum; 1 ppm,80.5%
same,% Control based on colony diameter,Gloephyllum trabeum; 5 ppm,94.0%
same,% Control based on colony diameter,Gloephyllum trabeum; 10 ppm,95.0%
same,% Control based on colony diameter,Gloephyllum trabeum; 25 ppm,92.5%
same,% Control based on colony diameter,Gloephyllum trabeum; 100 ppm,94.0%
same,control of the sapstain,sapstain fungi,> 60%
same,control of wood rotting fungi,[1],73.1%
same,% Control based on colony diameter,Coriolus versicolor; 1 ppm,100.0%
same,% Control based on colony diameter,Coriolus versicolor; 5 ppm,100.0%
same,% Control based on colony diameter,Coriolus versicolor; 10 ppm,100.0%
same,% Control based on colony diameter,Coriolus versicolor; 25 ppm,100.0%
same,% Control based on colony diameter,Coriolus versicolor; 100 ppm,100.0%
same,% Control based on colony diameter,Poria placenta; 1 ppm,99.4%
same,% Control based on colony diameter,Poria placenta; 5 ppm,100.0%
same,% Control based on colony diameter,Poria placenta; 10 ppm,100.0%
same,% Control based on colony diameter,Poria placenta; 25 ppm,100.0%
same,% Control based on colony diameter,Poria placenta; 100 ppm,100.0%
same,% Control based on colony diameter,Coniophora puteana; 1 ppm,50.4%
same,% Control based on colony diameter,Coniophora puteana; 5 ppm,75.6%
same,% Control based on colony diameter,Coniophora puteana; 10 ppm,84.7%
same,% Control based on colony diameter,Coniophora puteana; 25 ppm,68.7%
same,% Control based on colony diameter,Coniophora puteana; 100 ppm,77.9%
